Assay results: the supplement of paper PMC10307832

Experiments:
Assay in all cases: relative viability (nuclei count vs DMSO), 5 days (fraction); higher = more cells survive
ALW-II-49-7 + Luminespib = compound: Cc1ccc(C(=O)Nc2cccc(C(F)(F)F)c2)cc1Nc1cncc(C(N)=O)c1 [ALW-II-49-7] + CCNC(=O)c1noc(-c2cc(C(C)C)c(O)cc2O)c1-c1ccc(CN2CCOCC2)cc1 [Luminespib] (partner 0.01 µM)
Method in brief: (§1)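 Cells from lung cancer lines were seeded into 1536-well plates and, one day later, dosed by pin tool. Treatments were either a single drug or a fixed dose of an anchor drug with five library-drug doses (not always all listed) in √10 steps. After 5 days, nuclei were stained in a one-step fixation (final 0.05% Triton X-100, 1% formaldehyde, 1 ug/ml Hoechst) and counted on 4× images, and relative viability is the treated-to-vehicle nuclei ratio, as the median of duplicate plates.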

ALW-II-49-7 + Phenformin = compound: Cc1ccc(C(=O)Nc2cccc(C(F)(F)F)c2)cc1Nc1cncc(C(N)=O)c1 [ALW-II-49-7] + N=C(N)NC(=N)NCCc1ccccc1 [Phenformin] (partner 250 µM)
Method in brief: as §1

Dasatinib + Foretinib = compound: Cc1nc(Nc2ncc(C(=O)Nc3c(C)cccc3Cl)s2)cc(N2CCN(CCO)CC2)n1 [Dasatinib] + COc1cc2c(Oc3ccc(NC(=O)C4(C(=O)Nc5ccc(F)cc5)CC4)cc3F)ccnc2cc1OCCCN1CCOCC1 [Foretinib] (partner 0.25 µM)
Method in brief: as §1

Dasatinib + Pictilisib = compound: Cc1nc(Nc2ncc(C(=O)Nc3c(C)cccc3Cl)s2)cc(N2CCN(CCO)CC2)n1 [Dasatinib] + CS(=O)(=O)N1CCN(Cc2cc3nc(-c4cccc5[nH]ncc45)nc(N4CCOCC4)c3s2)CC1 [Pictilisib] (partner 1 µM)
Method in brief: as §1

Row | Cell Line | relative viability (ALW-II-49-7 + Luminespib; first compound 0.08 µM) | relative viability (ALW-II-49-7 + Luminespib; first compound 0.253 µM) | relative viability (ALW-II-49-7 + Luminespib; first compound 0.8 µM) | relative viability (ALW-II-49-7 + Luminespib; first compound 2.53 µM) | relative viability (ALW-II-49-7 + Luminespib; first compound 8 µM) | relative viability (ALW-II-49-7 + Phenformin; first compound 0.08 µM) | relative viability (ALW-II-49-7 + Phenformin; first compound 0.253 µM) | relative viability (ALW-II-49-7 + Phenformin; first compound 0.8 µM) | relative viability (ALW-II-49-7 + Phenformin; first compound 2.53 µM) | relative viability (ALW-II-49-7 + Phenformin; first compound 8 µM) | relative viability (Dasatinib + Foretinib; first compound 0.005 µM) | relative viability (Dasatinib + Foretinib; first compound 0.01581 µM) | relative viability (Dasatinib + Foretinib; first compound 0.05 µM) | relative viability (Dasatinib + Foretinib; first compound 0.1581 µM) | relative viability (Dasatinib + Foretinib; first compound 0.5 µM) | relative viability (Dasatinib + Pictilisib; first compound 0.005 µM) | relative viability (Dasatinib + Pictilisib; first compound 0.01581 µM) | relative viability (Dasatinib + Pictilisib; first compound 0.05 µM) | relative viability (Dasatinib + Pictilisib; first compound 0.1581 µM) | relative viability (Dasatinib + Pictilisib; first compound 0.5 µM)
1 | NCI-H2228 | 0.255 | 0.14 | 0.16 | 0.145 | 0.215 | 0.286 | 0.215 | 0.328 | 0.251 | 0.334 | 0.853 | 0.614 | 0.766 | 0.51 | 0.407 | 0.361 | 0.289 | 0.273 | 0.215 | 0.212
2 | NCI-H2347 | 0.241 | 0.483 | 0.363 | 0.324 | 0.512 | 0.455 | 0.334 | 0.329 | 0.26 | 0.297 | 0.625 | 0.504 | 0.436 | 0.378 | 0.495 | 0.419 | 0.328 | 0.316 | 0.493 | 0.347
3 | NCI-H2405 | 0.788 | 0.598 | 0.646 | 0.474 | 0.459 | 0.389 | 0.411 | 0.343 | 0.351 | 0.358 | 0.983 | 0.714 | 0.564 | 0.304 | 0.233 | 0.353 | 0.294 | 0.261 | 0.197 | 0.16
4 | NCI-H3122 | 0.0922 | 0.0773 | 0.124 | 0.102 | 0.195 | 0.394 | 0.366 | 0.381 | – | 0.302 | 0.932 | 0.871 | 0.955 | 0.942 | 0.567 | 0.704 | 0.753 | 0.755 | 0.614 | 0.445
5 | PC-3 [JPC-3] | 0.669 | 0.698 | 0.636 | 0.548 | 0.772 | 0.486 | 0.461 | 0.456 | 0.448 | 0.452 | 1.05 | 1.02 | 1.05 | 0.948 | 0.434 | 0.881 | 0.676 | 0.734 | 0.706 | 0.317
6 | PC-14 | 0.191 | 0.161 | 0.119 | – | 0.125 | 0.562 | 0.637 | 0.528 | 0.406 | 0.546 | 0.981 | 0.948 | 0.912 | 0.712 | 0.335 | 0.631 | 0.458 | 0.529 | 0.232 | 0.0479
7 | RERF-LC-KJ | 1.56 | 1.18 | 1.68 | 1.39 | 1.15 | 0.419 | 0.456 | 0.414 | 0.373 | 0.397 | 0.888 | 0.831 | 0.989 | 0.824 | 0.779 | 0.543 | 0.518 | 0.53 | 0.398 | 0.403
8 | SK-LU-1 | 0.184 | 0.221 | 0.21 | 0.192 | 0.157 | 0.445 | 0.583 | 0.519 | 0.445 | 0.435 | 0.543 | 0.343 | 0.295 | 0.171 | 0.179 | 0.369 | 0.312 | 0.244 | 0.201 | 0.174
9 | SK-MES-1 | 0.591 | 0.797 | 0.8 | 0.864 | 0.719 | 0.644 | 0.637 | 0.625 | 0.577 | 0.512 | 1.01 | 0.73 | 0.687 | 0.482 | 0.231 | 0.329 | 0.287 | 0.242 | 0.165 | 0.16
10 | SW 1573 | 0.29 | 0.223 | 0.251 | 0.289 | 0.144 | 0.347 | 0.385 | 0.374 | 0.479 | 0.398 | 1.05 | 0.746 | 0.783 | 0.695 | 0.525 | 0.431 | 0.426 | 0.379 | 0.265 | 0.203
